The test system of test [1] is Vascular Smooth Muscle Cells (VSMCs). Description: Chemoinvasion (Boyden chamber) assay, PDGF-BB as attractant. In kind it is cell-based, rat. On the procedure:
Vascular Smooth Muscle Cells (VSMCs) were isolated by collagenase/elastase enzymatic digestion of the medial layers of the rat aorta obtained from 6 month old Wistar rats. The cells were maintained in culture with 10% fetal calf serum, high glucose DMEM, and amino acid supplement. Cell cultures were maintained at 37° C. in 5% CO2.
(§1) Chemoinvasion (Boyden chamber) assays were performed using modified Boyden chamber (Albini, et al. (1987) Cancer Res., 47:3239-3245), comprising an upper chamber separated from a lower chamber by a porous PVPF filter. PVPF filters (8 μm pore diameter, Nucleopore Filters, Pleasanton, Calif.) were coated and air dried consecutively with solutions containing 100 μg/ml type I collagen, 5 μg/ml fibronectin, and 5 μg reconstituted basement membrane (produced from the Englebreth-Holm-Swarm tumor (Kleinman, et al. (1986) Biochemistry, 25:312-318), producing a continuous 10 μm thick coating of matrix material. Boyden chambers were assembled by adding 10 ng/ml PDGF BB in DMEM to the lower (chemoattractant) chamber. Cells (approximately 200,000) suspended in DMEM containing 0.1% BSA were then added to the upper chamber. […] The chambers were then incubated for 4 hours at 37° C. in a 5% CO2 atmosphere. At the end of the incubation period, the cells were fixed and stained with hematoxylin and eosin. The cells on the upper surface (non-invaders) were mechanically removed and the cells on the underside of the filter (invaders) were counted under 400× magnification (four random fields were counted per filter and all experiments were run in triplicate, and each triplicate assay was repeated at least three times on separate occasions using different VSMC preparations). Chemotaxis was assayed in analogous fashion in the Boyden chambers described above, except that the reconstituted basement membrane was omitted.
VSMC's were isolated by collagense/elastase enzymatic digestion of the medial layers of the rat aorta obtained from 6 month old Wistar rats. The cells were maintained in culture with 10% fetal calf serum, high glucose DMEM, and amino acid supplement. Cell cultures were maintained at 37° C. in 5% CO2.
Chemoinvasion assays were performed using a modified Boyden chamber, consisting of an upper chamber separated from a lower chamber by a porous PVPF filter. PVPF filters (8 μm pore diameter, Nucleopore Filters Pleasanton, Calif.) were coated and air dried consecutively with solutions containing 100 μg/ml type I collagen, […] fibronectin, and 5 μg reconstituted basement membrane (produced from the Englebreth-Holm-Swarm tumor), producing a continuous 10 μm thick coating of matrix material. Boyden chambers were assembled with PDGF-BB 10 ng/ml in DMEM in the lower (chemoattractant) chamber, then cells (approximately 200,000) suspended in DMEM containing 0.1% BSA were added to the upper chamber. Some of the cells used in these assays were pretreated 18 hours with deuterium oxide (25%, 50%, or 75% v/v substitution for H2O) in culture. In the deuterium oxide-treated groups, ^2H2O substituted DMEM (v/v) was added to the upper and lower chambers at the same concentration as that used for pretreatment. The chambers were then incubated for 4 hours at 37° C. in a humidified 5% CO2 atmosphere. […] After the cells on the upper surface of the filter (non-invaders) were mechanically removed, the cells on the underside (invaders) were counted under 400 X magnification (four random fields were counted per filter and all experiments were run in triplicate).

Test [2] deals with VSMC. Description: Chemotaxis assay (Boyden chamber without basement membrane proteins), PDGF-BB as attractant. Conditions: filter coated only with fibronectin and collagen I. It is filed as cell-based, rat. On the procedure: as §1, with “Chemotaxis was assayed in analogous fashion in the Boyden chambers described above, except that the reconstituted basement membrane was omitted.” left out

Test [3] deals with VSMC collagenase secretion. The test is described as follows: Gelatinase zymography of Boyden assay supernatants. In kind it is cell-based, rat. The following applies: taxol range 30 pM to 100 nM. Here is the method:
Gelatinase zymography was performed on the superannuates removed after the 4 hour conclusion of the Boyden assays described above. Gelatin-degrading proteinases secreted into the media by VSMCs were analyzed by non-reducing sodium dodecyl sulfate-polyacrylamide gel electrophoresis in 10% polyacrylamide gels containing 0.1% (w/v) gelatin. Following electrophoresis, the gelatinases were renatured by incubating the gel for 30 min. at 23° C. in 2.5% (v/v) Triton X-100 followed by 18 hour incubation at 37° C. in 0.2 M NaCl, 5 mM CaCl2 0.02% Brij 35 (w/v), 50 mM Tris-HCI (pH 7.6). The gels were stained for 90 minutes with 0.5% Coomassie Brilliant Blue G-250 and destained with 10% acetic acid, 40% methanol. Gelatinolytic activity was indicated by a clear band against the background of the blue-stained gelatin.

The next test concerns c-fos mRNA expression. The test is described as follows: PDGF-BB-stimulated c-fos mRNA expression in cultured VSMC. It is filed as cell-based, rat.
In a further test the test system is rat carotid artery. The test is described as follows: Balloon catheter injury of the rat carotid artery (restenosis model). It is filed as in vivo, Wistar rats. On the procedure: Under a protocol approved by the National Institute on Aging Animal Care and use Committee, 6 month Wistar rats from the GRC colony wee anesthetized with 20 mg/kg body weight phenobarbital, 2 mg/kg body weight ketamine, and 4 mg/kg body weight xylazine intraperitoneally. The left external carotid artery was cannulated with 2-French Fogarty embolectomy catheter, inflated with saline and passed three times up and down the common carotid artery to produce a distending, deendothelializing injury. […] Cross sections of the carotids were mounted on microscope slides and stained with hematoxylin and eosin stain. The image of the carotid artery was projected onto a digitizing board and the cross sectional areas of the intima and the media were measured. As indicated in the prior art (Ferns, G. A. A. et al. (1991) Science, 253:1129-1132) the rat carotid artery injury model of restenosis can be useful in the study of human restenosis, and indicate potential therapeutic action in humans.

A further test relates to polymerized tubulin. The test is described as follows: Microtubule bundling in cultured VSMC (anti-tubulin antibody labelling). In kind it is cell-based, rat. An excerpt:
In deuterium oxide-treated cells, ^2H2O (v/v) was substituted for water (H2O) in the preparation of the DMEM from concentrated stock. […], cells were fixed in 3.7% formalin, premeabilized with 1% Triton X-100, and polymerized tubulin was labelled with mouse anti-β-tubulin antibody (SMI 62 monoclonal antibody to polymerized β-tubulin, Paragon Biotec, Inc., Baltimore, Md.). […] Representative light photomicrographs from (FIG. 5A) control, and (FIG. 5B) 75% deuterium oxide treated VSMCs are shown in FIGS. 5A-5B.

In test [4] the test system is VSMC. Description: [3H]thymidine incorporation in cultured VSMC.
In test [5] the test system is VSMC. Description: Bromodeoxyuridine (BrDU) incorporation in cultured VSMC. Conditions: various 2H2O concentrations. In kind it is cell-based, rat. Here is the method:
Incorporation of the thymidine analog, bromodeoxyuridine (BrDU) was measured to determine the effect of deuterium oxide on VSMC DNA synthesis. […] Following 20 hr incubation in 10% FCS+DMEM at various ^2H2O concentrations, 10 μM BrDU was added and the incubation continues for an additional 4 hr. […] The cells were incubated for 2 hr with 1N HCl to denature the DNA, and subsequently washed 4 times in PBS. Mouse monoclonal BrDU antibody (Boehringer Mannheim) in 2% BSA-PBS was incubated with cells for 1 hr. After PBS wash, goat anti-mouse antibody conjugated with alkaline phosphatase was added. Cell nuclei containing BrDU substituted for thymidine stained red with alkaline phosphatase substrate, while all other nuclei stained blue. The fraction of BrDU-positive nuclei was compared between control (defined as 100%) and that of the deuterium oxide-pretreated groups.

Setting [6] is: cross sectional area, 2 mg/kg i.p., 11 days after injury.

The structures appear in SMILES notation. pIC50: −log10 of the molar value.

As for `CC(=O)O[C@H]1C(=O)[C@@]2(C)[C@H]([C@H](OC(=O)c3ccccc3)[C@]3(O)C[C@H](OC(=O)[C@H](O)[C@@H](NC(=O)c4ccccc4)c4ccccc4)C(C)=C1C3(C)C)[C@]1(OC(C)=O)CO[C@@H]1C[C@@H]2O` [Taxol], in test [1] (30 pM (the lowest dose used)), the “inhibition of VSMC invasion at 30 pM” value is on record as “significant inhibition”. For the same molecule, the “inhibition of VSMC invasion at 100 nM” value in test [1] (100 nM taxol) is recorded as “essentially complete inhibition”. Further, the pIC50 in test [1] (Rattus norvegicus, VSMC, 18 h pretreatment, PDGF-BB attractant, 4 h incubation, read-out: half-maximal inhibitory concentration, VSMC invasion) is 9.30; with c-fos mRNA expression (Rattus norvegicus, cultured VSMC, read-out: half-maximal inhibitory concentration, PDGF-BB-stimulated c-fos mRNA expression), 9.00; with VSMC [4] (Rattus norvegicus, VSMC, read-out: half-maximal inhibitory concentration, VSMC [3H]thymidine incorporation) it was 8.30. For the same molecule, the “outcome of chemotaxis assay compared with chemoinvasion assay” value in the test with VSMC [2] is listed as “identical outcome”. The “level of VSMC collagenase secretion compared to control” value in test [3] was “did not vary significantly”. Moreover, the “inhibition of c-fos mRNA expression above 20 nM” value in the test on c-fos mRNA expression (above 20 nM taxol) is reported as “essentially complete inhibition”. Besides, the “reduction of neointimal area compared to vehicle treated animals” value in the test on rat carotid artery (2 mg/kg i.p. once daily, 11 days after injury) is on record as 70%. In the test on rat carotid artery (setting [6]), this molecule yielded an Intima of 0.03 ± 0.01 mm^2. Moreover, the Media in the test on rat carotid artery (setting [6]) stood at 0.16 ± 0.02 mm^2. Moreover, the I/M in the test on rat carotid artery (intima/media ratio, 2 mg/kg i.p., 11 days after injury) came to 0.18 ± 0.04. In the test with rat carotid artery (several of the taxol-treated animals, denuded endothelium present), the “discernible neointima in taxol-treated animals” value is recorded as “virtually no discernible neointimal”. Also, the “microtubule bundling in VSMC's cultured on plastic” value in the test with polymerized tubulin (0.1, 1, 10 nM taxol, 18-hour pre-treatment) was “dose-dependent microtubule bundling”. Moreover, the “inhibition of [3H]thymidine incorporation at 1 nM” value with VSMC [4] (1 nM taxol) was “significant inhibition”. Besides, the “inhibition of [3H]thymidine incorporation at 100 nM” value in the test with VSMC [4] (100 nM taxol) is “essentially complete inhibition”.
As for `[2H]O[2H]` [deuterium oxide], the “inhibition of VSMC Boyden chamber invasion at 75% 2H2O” value in test [1] (75% 2H2O) is “nearly complete inhibition”. For the same molecule, the “half-maximal inhibition of PDGF-mediated VSMC Boyden chamber invasion” value in test [1] (18 h pretreatment, v/v substitution for H2O) was 25 % 2H2O. In addition, the “effect on cultured VSMC proliferation and DNA synthesis (BrDU incorporation)” value with VSMC [5] was “inhibited cultured VSMC proliferation and DNA synthesis in a dose-dependent fashion”. In addition, the “microtubule hyperpolymerization in cultured VSMCs” value in the test on polymerized tubulin (18 hours with 25%, 50% or 75% deuterium oxide) was “dose-dependent microtubule hyperpolymerization”.
